EP0390135A1, “Pyrroloquinoline derivatives, antimicrobial agents using the same and process for preparing the same” (OTSUKA PHARMACEUTICAL CO., LTD., priority 1989, dated 1990)
≈ marks a conversion by molar mass, not a printed value. Structures can show the parent of a compound that is named as a salt. Where two headings read alike, the source gives them in different places.

Columns and labels:
[1] = Ratio of dissolution to water (water solubility)
S.aureus FDA209P = assay: MIC by agar plate dilution method; format: cell-based; details: in vitro
Description: (§1) In order to investigate the in vitro activity of the under-mentioned compounds against various bacteria, the minimal inhibitory concentration (MIC, µg/mℓ) values were determined by the agar plate dilution method (see Chemotherapy, 22, 1126-1128 (1974)]. The results are shown in Table 1.

K.pneumoniae NCTC-9632 = assay: MIC by agar plate dilution method; format: cell-based
Description: as §1

E.facalis ATCC-21212 = assay: MIC by agar plate dilution method; format: cell-based; details: in vitro
Description: as §1

P.aeruginosa ATCC-10145 = assay: MIC by agar plate dilution method; format: cell-based
Description: as §1

S.marcoscons IFO-12648 = assay: MIC by agar plate dilution method; format: cell-based; details: in vitro
Description: as §1

E.coli NIHJ JC-2 = assay: MIC by agar plate dilution method; format: cell-based
Description: as §1

P.mirabilis ATCC-29906 = assay: MIC by agar plate dilution method; format: cell-based
Description: as §1

M.morganii IID Kono = assay: MIC by agar plate dilution method; format: cell-based; details: in vitro
Description: as §1

A.calcoaceticus Ac-54 = assay: MIC by agar plate dilution method; format: cell-based
Description: as §1

P.aeruginosa E-2 = assay: MIC by agar plate dilution method; format: cell-based
Description: as §1

physchem = details: water, Ratio of dissolution to water
[2] = Staphylococcus aureus, FDA209P, read-out: MIC
[3] = Klebsiella pneumoniae, NCTC9632, in vitro, read-out: MIC
[4] = Pseudomonas aeruginosa, ATCC10145, in vitro, read-out: MIC
[5] = Escherichia coli, NIHJJC2, in vitro, read-out: MIC
[6] = Proteus mirabilis, ATCC29906, in vitro, read-out: MIC
[7] = Morganella morganii, read-out: MIC
[8] = Acinetobacter calcoaceticus, AC54, in vitro, read-out: MIC
[9] = Pseudomonas aeruginosa, E2, in vitro, read-out: MIC
[10] = Ratio of dissolution to water, at 20 °C

SMILES | MIC (S.aureus FDA209P; [2]) | MIC (K.pneumoniae NCTC-9632; [3]) | MIC (E.facalis ATCC-21212; read-out: MIC) | MIC (P.aeruginosa ATCC-10145; [4]) | MIC (S.marcoscons IFO-12648; read-out: MIC) | MIC (E.coli NIHJ JC-2; [5]) | MIC (P.mirabilis ATCC-29906; [6]) | MIC (M.morganii IID Kono; [7]) | MIC (A.calcoaceticus Ac-54; [8]) | MIC (P.aeruginosa E-2; [9]) | other results
CC1CN(c2c(F)cc3c(=O)c(C(=O)O)cn4c3c2CC4C)CC(C)N1.Cl (single isomer, unassigned; (+)) [Example 12, (+)-8-fluoro-2-methyl-9-(3,5-dimethyl-1-piperazinyl)-6-oxo-1,2-dihydro-6H-pyrrolo[3,2,1-ij]quinoline-5-carboxylic acid hydrochloride] | – | – | – | – | – | – | – | – | – | – | solubility [1]: 175 mg/mL
CC1Cc2c(N3CCC(N)C3)c(F)cc3c(=O)c(C(=O)O)cn1c23 (single isomer, unassigned; (+)) [Example 17, (+)-8-fluoro-2-methyl-9-(3-amino-1-pyrrolidinyl)-6-oxo-1,2-dihydro-6H-pyrrolo[3,2,1-ij]quinoline-5-carboxylic acid] | 0.2 µg/mL (≈ 0.604 µM) | 0.05 µg/mL (≈ 0.151 µM) | 3.13 µg/mL (≈ 9.45 µM) | 0.39 µg/mL (≈ 1.18 µM) | 0.1 µg/mL (≈ 0.302 µM) | 0.05 µg/mL (≈ 0.151 µM) | 0.1 µg/mL (≈ 0.302 µM) | 0.024 µg/mL (≈ 0.0724 µM) | 0.39 µg/mL (≈ 1.18 µM) | 0.39 µg/mL (≈ 1.18 µM) | –
CC1CN(c2c(F)cc3c(=O)c(C(=O)O)cn4c3c2CC4C)CCN1 (single isomer, unassigned; (+)) [Example 20, (+)-8-fluoro-2-methyl-9-(3-methyl-1-piperazinyl)-6-oxo-1,2-dihydro-6H-pyrrolo[3,2,1-ij]quinoline-5-carboxylic acid] | – | – | – | – | – | – | – | – | – | – | solubility [1, 10]: 143 mg/mL
CC1CN(c2c(F)cc3c(=O)c(C(=O)O)cn4c3c2CC4C)CCN1.Cl (racemic) [Example 10, (±)-8-fluoro-2-methyl-9-(3-methyl-1-piperazinyl)-6-oxo-1,2-dihydro-6H-pyrrolo[3,2,1-ij]quinoline-5-carboxylic acid hydrochloride] | – | – | – | – | – | – | – | – | – | – | solubility (physchem): 152 mg/mL
CC(C)NCC1CCN(c2c(F)cc3c(=O)c(C(=O)O)cn4c3c2CC4C)C1 (single isomer, unassigned; (+)) [Example 19, (+)-8-fluoro-2-methyl-9-[3-(isopropylaminomethy 1-pyrrolidyl]-6-oxo-1,2-dihydro-6H-pyrrolo[3,2,1-ij]quinoline-5-carboxylic acid hydrochloride] | – | – | – | – | – | – | – | – | – | – | solubility [1, 10]: 135 mg/mL
CC1Cc2c(N3CCN(C)CC3)c(F)cc3c(=O)c(C(=O)O)cn1c23.Cl (racemic) [Reference Example 3, (±)-8-fluoro-2-methyl-9-(4-methyl-1-piperazinyl)-6-oxo-1,2-dihydro-6H-pyrrolo[3,2,1-ij]quinoline-5-carboxylic acid hydrochloride, reference compound] | – | – | – | – | – | – | – | – | – | – | solubility (physchem): 12 mg/mL
CC1Cc2c(N3CCC(N)C3)c(F)cc3c(=O)c(C(=O)O)cn1c23.Cl (single isomer, unassigned; (+)) [Example 17 hydrochloride, (+)-8-fluoro-2-methyl-9-(3-amino-1-pyrrolidyl)-6-oxo-1,2-dihydro-6H-pyrrolo[3,2,1-ij]quinoline-5-carboxylic acid hydrochloride] | – | – | – | – | – | – | – | – | – | – | solubility (physchem): 158 mg/mL
CC1Cc2c(N3CCN(C)CC3)c(F)cc3c(=O)c(C(=O)O)cn1c23 (single isomer, unassigned; (-)) [Reference Example 1, (-)-8-fluoro-2-methyl-9-(4-methyl-1-piperazinyl)-6-oxo-1,2-dihydro-6H-pyrrolo[3,2,1-ij]quinoline-5-carboxylic acid, reference compound] | – | – | – | – | – | – | – | – | – | – | MIC (S.aureus FDA209P; listed as F): 3.13 µg/mL (≈ 9.06 µM); MIC (K.pneumoniae NCTC-9632; in vitro, listed as F): 0.78 µg/mL (≈ 2.26 µM); MIC (E.facalis ATCC-21212; listed as F): 100 µg/mL (≈ 290 µM); MIC (P.aeruginosa ATCC-10145; in vitro, listed as F): 25 µg/mL (≈ 72.4 µM); MIC (S.marcoscons IFO-12648; listed as F): 0.78 µg/mL (≈ 2.26 µM); MIC (E.coli NIHJ JC-2; in vitro, listed as F): 0.78 µg/mL (≈ 2.26 µM); MIC (P.mirabilis ATCC-29906; in vitro, listed as F): 3.13 µg/mL (≈ 9.06 µM); MIC (M.morganii IID Kono; listed as F): 0.78 µg/mL (≈ 2.26 µM); MIC (A.calcoaceticus Ac-54; in vitro, listed as F): 3.13 µg/mL (≈ 9.06 µM); MIC (P.aeruginosa E-2; in vitro, listed as F): 12.5 µg/mL (≈ 36.2 µM)
CC1Cc2c(N3CCN(C)CC3)c(F)cc3c(=O)c(C(=O)O)cn1c23 (single isomer, unassigned; (+)) [Example 7, (+)-8-fluoro-2-methyl-9-(4-methyl-1-piperazinyl)-6-oxo-1,2-dihydro-6H-pyrrolo[3,2,1-ij]quinoline-5-carboxylic acid] | – | – | – | – | – | – | – | – | – | – | MIC (S.aureus FDA209P; listed as A): 0.1 µg/mL (≈ 0.29 µM); MIC (K.pneumoniae NCTC-9632; in vitro, listed as A): 0.05 µg/mL (≈ 0.145 µM); MIC (E.facalis ATCC-21212; listed as A): 0.78 µg/mL (≈ 2.26 µM); MIC (P.aeruginosa ATCC-10145; in vitro, listed as A): 1.56 µg/mL (≈ 4.52 µM); MIC (S.marcoscons IFO-12648; listed as A): 0.05 µg/mL (≈ 0.145 µM); MIC (E.coli NIHJ JC-2; in vitro, listed as A): 0.05 µg/mL (≈ 0.145 µM); MIC (P.mirabilis ATCC-29906; in vitro, listed as A): 0.2 µg/mL (≈ 0.579 µM); MIC (M.morganii IID Kono; listed as A): 0.05 µg/mL (≈ 0.145 µM); MIC (A.calcoaceticus Ac-54; in vitro, listed as A): 0.1 µg/mL (≈ 0.29 µM); MIC (P.aeruginosa E-2; in vitro, listed as A): 0.78 µg/mL (≈ 2.26 µM)
CCNCC1CCN(c2c(F)cc3c(=O)c(C(=O)O)cn4c3c2CC4C)C1.Cl (single isomer, unassigned; (+)) [Example 18, (+)-8-fluoro-2-methyl-9-[3-(ethylaminomethyl)-1-pyrrolidinyl]-6-oxo-1,2-dihydro-6H-pyrrolo[3,2,1-ij]quinoline-5-carboxylic acid hydrochloride] | – | – | – | – | – | – | – | – | – | – | solubility [1]: 195 mg/mL
CC1CN(c2c(F)cc3c(=O)c(C(=O)O)cn4c3c2CC4C)CCN1.Cl (single isomer, unassigned; (+)) [Example 8, (+)-8-fluoro-2-methyl-9-(3-methyl-1-piperazinyl)-6-oxo-1,2-dihydro-6H-pyrrolo[3,2,1-ij]quinoline-5-carboxylic acid hydrochloride] | 0.2 µg/mL | 0.05 µg/mL | 3.13 µg/mL | 0.39 µg/mL | 0.1 µg/mL | 0.05 µg/mL | 0.1 µg/mL | 0.012 µg/mL | 0.39 µg/mL | 0.39 µg/mL | Ratio of dissolution to water: 385 mg/mL
CC1Cc2c(N3CCN(C)CC3)c(F)cc3c(=O)c(C(=O)O)cn1c23 (single isomer, unassigned) [Example 7 hydrochloride] | – | – | – | – | – | – | – | – | – | – | solubility [1, 10]: 230 mg/mL
CC1CN(c2c(Cl)cc3c(=O)c(C(=O)O)cn4c3c2CC4C)CCN1.Cl (single isomer, unassigned; (+)) [Example 11, (+)-8-chloro-2-methyl-9-(3-methyl-1-piperazinyl)-6-oxo-1,2-dihydro-6H-pyrrolo[3,2,1-ij]quinoline-5-carboxylic acid hydrochloride] | 0.39 µg/mL | 0.1 µg/mL | 6.25 µg/mL | 0.78 µg/mL | 0.2 µg/mL | 0.1 µg/mL | 0.2 µg/mL | 0.024 µg/mL | 0.78 µg/mL | 0.78 µg/mL | solubility (physchem): 231 mg/mL
CC1CN(c2c(F)cc3c(=O)c(C(=O)O)cn4c3c2CC4C)CCN1.Cl (single isomer, unassigned; (-)) [Reference Example 2, (-)-8-fluoro-2-methyl-9-(3-methyl-1-piperazinyl)-6-oxo-1,2-dihydro-6H-pyrrolo[3,2,1-ij]quinoline-5-carboxylic acid hydrochloride, reference compound] | – | – | – | – | – | – | – | – | – | – | Ratio of dissolution to water: 167 mg/mL
CC1Cc2c(N3CCN(C)CC3)c(F)cc3c(=O)c(C(=O)O)cn1c23 (racemic) [Test Compound E, 8-fluoro-2-methyl-9-(4-methyl-1-piperazinyl)-6-oxo-1,2-dihydro-6H-pyrrolo[3,2,1-ij]quinoline-5-carboxylic acid, reference compound] | 0.2 µg/mL (≈ 0.579 µM) | 0.1 µg/mL (≈ 0.29 µM) | 1.56 µg/mL (≈ 4.52 µM) | 3.13 µg/mL (≈ 9.06 µM) | 0.1 µg/mL (≈ 0.29 µM) | 0.1 µg/mL (≈ 0.29 µM) | 0.39 µg/mL (≈ 1.13 µM) | 0.1 µg/mL (≈ 0.29 µM) | 0.2 µg/mL (≈ 0.579 µM) | 1.56 µg/mL (≈ 4.52 µM) | –
CC1COc2c(N3CCN(C)CC3)c(F)cc3c(=O)c(C(=O)O)cn1c23 (stereo not drawn) [Test Compound G, S-(-)-9-fluoro-3-methyl-10-(4-methyl-1-piperazinyl)-7-oxo-2,3-dihydro-7H-pyrido[1,2,3-de][1,4]benzoxazine-6-carboxylic acid, reference compound] | 0.2 µg/mL (≈ 0.553 µM) | 0.1 µg/mL (≈ 0.277 µM) | 3.13 µg/mL (≈ 8.66 µM) | 3.13 µg/mL (≈ 8.66 µM) | 0.2 µg/mL (≈ 0.553 µM) | 0.1 µg/mL (≈ 0.277 µM) | 0.39 µg/mL (≈ 1.08 µM) | 0.1 µg/mL (≈ 0.277 µM) | 0.39 µg/mL (≈ 1.08 µM) | 1.5 µg/mL (≈ 4.15 µM) | –
